Measurements: PMC2921948 (Clinical cancer research : an official journal of the …, 2010)
Read-outs that look alike come from different tables or passages of the source.

Legend:
[1] = target: T1, human serum albumin (HSA) (Homo sapiens, UniProt P02768); experiment: fluorescence polarization displacement of dansyl sarcosine; format: binding
[2] = target: T1, human serum albumin (HSA); experiment: as above; format: binding; remark: listed apart in the source

T1 sequence (P02768 25-609): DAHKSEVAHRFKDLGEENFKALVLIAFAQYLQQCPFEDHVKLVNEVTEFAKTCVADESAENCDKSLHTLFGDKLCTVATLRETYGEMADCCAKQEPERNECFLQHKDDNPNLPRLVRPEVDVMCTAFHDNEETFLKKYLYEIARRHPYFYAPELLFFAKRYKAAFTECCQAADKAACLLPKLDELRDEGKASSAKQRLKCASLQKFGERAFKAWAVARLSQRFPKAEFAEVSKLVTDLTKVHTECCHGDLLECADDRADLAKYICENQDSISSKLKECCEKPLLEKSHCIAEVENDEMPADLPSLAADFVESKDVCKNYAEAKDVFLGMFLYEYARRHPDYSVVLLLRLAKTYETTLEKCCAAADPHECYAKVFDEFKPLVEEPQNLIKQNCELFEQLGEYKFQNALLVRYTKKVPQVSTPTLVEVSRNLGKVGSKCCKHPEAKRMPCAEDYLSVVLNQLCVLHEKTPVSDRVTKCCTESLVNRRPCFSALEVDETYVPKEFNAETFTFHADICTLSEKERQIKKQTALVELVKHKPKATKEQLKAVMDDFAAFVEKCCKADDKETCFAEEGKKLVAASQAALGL

SMILES | IC50 [1] [µM] | IC50 [2] [µM]
CC1(C)CCC(c2ccc(Cl)cc2)=C(CN2CCN(c3ccc(C(=O)NS(=O)(=O)c4ccc(N[C@H](CCN5CCOCC5)CSc5ccccc5)c(S(=O)(=O)C(F)(F)F)c4)cc3)CC2)C1 [ABT-263] | 37 | –
CN(C)CC[C@H](CSc1ccccc1)Nc1ccc(S(=O)(=O)NC(=O)c2ccc(N3CCN(Cc4ccccc4-c4ccc(Cl)cc4)CC3)cc2)cc1[N+](=O)[O-] [ABT-737] | – | 711
